# Reference: patent US12011436B2, “Use of NOX inhibitors for treatment of cancer” (CALLIDITAS THERAPEUTICS SUISSE SA, priority 2017, dated 2024)
# Test system: 4T1 cancer cells mixed with BALB/C breast CAFs
# Assay: 4T1 breast cancer cells co-injected with CAFs into the mammary fat pad of mice, NOX4 inhibitor treatment
# Type: in vivo, mouse
# Conditions: 4T1+CAF tumours
# Method: Fourteen (14) days after randomization and if the antitumor activity of NOX4/1 compounds alone or in combination is considered sufficient, tumors from 5 satellite mice per group are collected, weighed and the tumor is cut in 2 fragments. One fragment is cut into slices 4 mm thick and fixed in 4% neutral buffered formalin for 24 to 48 h, and then embedded in paraffin (Histosec®, Merck, Darmstadt, Germany). One fragment is embedded in tissue Freezing Medium (Microm Microtech, France), snap-frozen in isopentane cooled over liquid nitrogen and stored at […] until processing. Immunohistochemical stains for CD3, CD4 and CD8 are performed on paraffin-embedded tissue sections using standard techniques (Biodoxis, France). The number of CD3, CD4 and CD8 immunopositive cells per field are counted. When 4T1 cancer cells (0.5×105) are used, those are injected in PBS s.c into the upper mammary fat pad of female mice aged 8-10 weeks. Cells are either injected on their own, or mixed with 2.5×105 BALB/C breast CAFs isolated from transgenic BALBneuT spontaneous stromal-rich breast tumours. […] GKT137831 was reconstituted in 1.2% Methyl Cellulose (Sigma) with 0.1% Polysorbate (Sigma) and administered by oral gavage 5×/week at 40 mg/kg. Control mice received vehicle by oral gavage. For longer term dosing, 15 initial doses were given as stated, but reduced to 3×/week for 3 weeks at 50 mg/kg, then 2×/week for 3 weeks at 60 mg/kg. The anti PD-1 antibody (Bioxcell; RMP1-14) was given via […]) injection. 300 μg of the antibody or the IgG2a isotype control (Bioxcell) were given when tumours were palpable every other day, totaling 3 doses. For the data presented under FIG. 1, tumours were measured every 2-3 days by electronic skin caliper from longest width and length. Tumour volume was calculated using the formula 4/3πXr3, where the radius (r) was calculated from tumour width and length measurement to provide an average diameter value. Mice were randomized into groups based on tumour volume so that no statistical difference occurred between mean tumour volumes between groups before treatments began. […]
compound,measurement,setting,value
"CN(C)c1cccc(-c2c3c(=O)n(-c4ccccc4Cl)[nH]c3cc(=O)n2C)c1 [GKT, 2-(2-chlorophenyl)-4-[3-(dimethylamino)phenyl]-5-methyl-1H-pyrazolo [4,3-c]pyridine-3,6(2H,5H)-dione]",SMA-positive CAF in tumours (immunochemistry),FIG. 1B,significantly reduces
same,CD8+ T-cell location in tumour (immunochemistry),FIG. 1C,relocation of CD8+ T-cells from the tumour edge into the centre of the tumour
same,tumour volume vs vehicle alone,"day 15, after 8 days of treatment, oral gavage 40 mg/kg 5x/week, FIG. 1A",significantly smaller
